Results from BindingDB's records for doi:10.1124/jpet.106.102897 (University of Kansas, 2006).
Several values for one entry are separate records, joined by “and”; a condition that tells them apart may be missing. Equal entries are not always repeated.

How the values were obtained:
[1] = target: Histamine H1 receptor (Homo sapiens, UniProt P35367)
[2] = target: Histamine H1 receptor (Cavia porcellus, UniProt P31389)
Sequence of Histamine H1 receptor (Cavia porcellus, UniProt P31389) (P31389 whole entry): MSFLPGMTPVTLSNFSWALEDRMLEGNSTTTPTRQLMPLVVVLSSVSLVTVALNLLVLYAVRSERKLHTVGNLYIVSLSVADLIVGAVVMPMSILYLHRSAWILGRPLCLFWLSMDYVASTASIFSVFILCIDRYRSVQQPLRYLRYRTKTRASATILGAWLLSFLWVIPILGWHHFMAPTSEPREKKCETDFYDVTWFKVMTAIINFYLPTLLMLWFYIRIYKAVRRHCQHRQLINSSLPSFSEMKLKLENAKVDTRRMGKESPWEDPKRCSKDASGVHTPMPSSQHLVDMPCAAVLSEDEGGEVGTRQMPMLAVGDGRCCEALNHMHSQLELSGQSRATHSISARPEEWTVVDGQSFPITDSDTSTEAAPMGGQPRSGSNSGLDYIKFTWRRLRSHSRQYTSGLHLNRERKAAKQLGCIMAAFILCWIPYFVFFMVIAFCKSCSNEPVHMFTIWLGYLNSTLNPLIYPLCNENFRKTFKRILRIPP

Sequence of Histamine H1 receptor (Homo sapiens, UniProt P35367) (P35367 whole entry): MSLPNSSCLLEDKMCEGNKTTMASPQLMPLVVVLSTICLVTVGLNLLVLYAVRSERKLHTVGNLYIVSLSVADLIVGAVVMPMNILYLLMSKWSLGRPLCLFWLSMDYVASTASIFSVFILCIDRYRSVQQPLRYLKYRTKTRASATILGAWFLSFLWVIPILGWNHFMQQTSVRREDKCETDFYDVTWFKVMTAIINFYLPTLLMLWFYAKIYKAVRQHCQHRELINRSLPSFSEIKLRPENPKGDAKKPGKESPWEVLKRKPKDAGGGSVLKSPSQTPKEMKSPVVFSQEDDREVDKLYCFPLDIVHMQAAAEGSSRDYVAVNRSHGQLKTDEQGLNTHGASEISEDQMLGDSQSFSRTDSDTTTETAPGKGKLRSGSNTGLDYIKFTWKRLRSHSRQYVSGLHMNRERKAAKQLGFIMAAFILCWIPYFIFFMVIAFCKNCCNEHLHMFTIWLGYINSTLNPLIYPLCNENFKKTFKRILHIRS

| SMILES | Ki [1] | Ki [2] |
| --- | --- | --- |
| N=C(NCCCc1c[nH]cn1)NC(=O)CCCc1ccccc1 [UR-AK67] | 14000 nM | 2200 nM |
| CC(C(=O)NC(N)=NCCCc1cnc[nH]1)C1CCCCC1 (configuration not stated) [UR-AK59] | 6000 nM and 2300 nM | 11000 nM |
| CC(CC(=O)NC(N)=NCCCc1cnc[nH]1)C1CCCCC1 (configuration not stated) [UR-AK24] | – | 2600 nM and 1600 nM |
| N=C(NCCCc1c[nH]cn1)NC(=O)CCCCc1ccccc1 [UR-AK22] | 2900 nM | 440 nM |

Next, values leading:

| Ki [1] | Ki [2] | SMILES |
| --- | --- | --- |
| 7000 nM | 4700 nM | NC(=NCCCc1cnc[nH]1)NC(=O)CC1CCCCC1 [UR-AK62] |
| 3500 nM | – | CC(C(=O)NC(N)=NCCCc1cnc[nH]1)c1ccccc1 (configuration not stated) [UR-AK68] |
| 990 nM | 350 nM | N=C(NCCCc1c[nH]cn1)NC(=O)CCCC1CCCCC1 [UR-AK64] |
